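Cultured in 96-well plates, cells were exposed to test compound for 48 hours across five concentrations. TGI: concentration producing complete growth inhibition.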
System: HCT-116 colon
Test: NCI-60 cell line screen, 48 h

Compared with `C=C1C(=O)O[C@@H]2O[C@@]3(C)CC[C@H]4[C@H](C)CC[C@@H]1[C@@]24O3`, `c1cc(-c2ccc(-c3ccc(-c4ccc(-c5cccc6nsnc56)[nH]4)c4nsnc34)[nH]2)c2nsnc2c1` is higher in TGI: 32.2 µM for the first, over 100 µM for the second.

System: 786-0 renal
Test: NCI-60 cell line screen, 48 h

Compared with `C[C@]12CC[C@H](O)CC1=CC[C@@H]1C2CC[C@]2(C)c3n[nH]nc3CC12` (some centres undefined), `C=C1C(=O)O[C@@H]2O[C@@]3(C)CC[C@H]4[C@H](C)CC[C@@H]1[C@@]24O3` is lower in TGI: over 100 µM for the first, 41.3 µM for the second.

`O=C1C=CC(=O)c2c1ccc1c3ccccc3n(CCCCCCCCn3c4ccccc4c4ccc5c(c43)C(=O)C=CC5=O)c21` and `c1cc(-c2ccc(-c3ccc(-c4ccc(-c5cccc6nsnc56)[nH]4)c4nsnc34)[nH]2)c2nsnc2c1` cannot be ordered by TGI: over 100 µM for the first, over 100 µM for the second.

In the case of `N#CC[C@@H](O)COc1ccccc1`, the TGI was over 100 µM.

System: MCF7 breast
Test: NCI-60 cell line screen, 48 h

Compared with `C[C@]12CC[C@H](O)CC1=CC[C@@H]1C2CC[C@]2(C)c3n[nH]nc3CC12` (some centres undefined), `C=C1C(=O)O[C@@H]2O[C@@]3(C)CC[C@H]4[C@H](C)CC[C@@H]1[C@@]24O3` is lower in TGI: over 100 µM for the first, 25.3 µM for the second.

`O=C1C=CC(=O)c2c1ccc1c3ccccc3n(CCCCCCCCn3c4ccccc4c4ccc5c(c43)C(=O)C=CC5=O)c21` and `c1cc(-c2ccc(-c3ccc(-c4ccc(-c5cccc6nsnc56)[nH]4)c4nsnc34)[nH]2)c2nsnc2c1` cannot be ordered by TGI: over 100 µM for the first, over 100 µM for the second.

`N#CC[C@@H](O)COc1ccccc1` was tested, and the TGI was over 100 µM.

System: RXF 393 renal
Test: NCI-60 cell line screen, 48 h

Going from `C[C@]12CC[C@H](O)CC1=CC[C@@H]1C2CC[C@]2(C)c3n[nH]nc3CC12` (some centres undefined) to `C=C1C(=O)O[C@@H]2O[C@@]3(C)CC[C@H]4[C@H](C)CC[C@@H]1[C@@]24O3`, the TGI falls from over 100 µM to 54.7 µM.

`O=C1C=CC(=O)c2c1ccc1c3ccccc3n(CCCCCCCCn3c4ccccc4c4ccc5c(c43)C(=O)C=CC5=O)c21` and `N#CC[C@@H](O)COc1ccccc1` cannot be ordered by TGI: over 100 µM for the first, over 100 µM for the second.

System: OVCAR-3 ovarian
Test: NCI-60 cell line screen, 48 h

Going from `C[C@]12CC[C@H](O)CC1=CC[C@@H]1C2CC[C@]2(C)c3n[nH]nc3CC12` (some centres undefined) to `C=C1C(=O)O[C@@H]2O[C@@]3(C)CC[C@H]4[C@H](C)CC[C@@H]1[C@@]24O3`, the TGI falls from over 100 µM to 93.5 µM.

`O=C1C=CC(=O)c2c1ccc1c3ccccc3n(CCCCCCCCn3c4ccccc4c4ccc5c(c43)C(=O)C=CC5=O)c21` and `c1cc(-c2ccc(-c3ccc(-c4ccc(-c5cccc6nsnc56)[nH]4)c4nsnc34)[nH]2)c2nsnc2c1` cannot be ordered by TGI: over 100 µM for the first, over 100 µM for the second.

For `N#CC[C@@H](O)COc1ccccc1`, the TGI was over 100 µM.

System: UO-31 renal
Test: NCI-60 cell line screen, 48 h

Going from `C[C@]12CC[C@H](O)CC1=CC[C@@H]1C2CC[C@]2(C)c3n[nH]nc3CC12` (some centres undefined) to `C=C1C(=O)O[C@@H]2O[C@@]3(C)CC[C@H]4[C@H](C)CC[C@@H]1[C@@]24O3`, the TGI falls from over 100 µM to 63 µM.

`N#CC[C@@H](O)COc1ccccc1` and `c1cc(-c2ccc(-c3ccc(-c4ccc(-c5cccc6nsnc56)[nH]4)c4nsnc34)[nH]2)c2nsnc2c1` cannot be ordered by TGI: over 100 µM for the first, over 100 µM for the second.

System: HT29 colon
Test: NCI-60 cell line screen, 48 h

Compared with `C[C@]12CC[C@H](O)CC1=CC[C@@H]1C2CC[C@]2(C)c3n[nH]nc3CC12` (some centres undefined), `C=C1C(=O)O[C@@H]2O[C@@]3(C)CC[C@H]4[C@H](C)CC[C@@H]1[C@@]24O3` is lower in TGI: over 100 µM for the first, 83.5 µM for the second.

`O=C1C=CC(=O)c2c1ccc1c3ccccc3n(CCCCCCCCn3c4ccccc4c4ccc5c(c43)C(=O)C=CC5=O)c21` and `c1cc(-c2ccc(-c3ccc(-c4ccc(-c5cccc6nsnc56)[nH]4)c4nsnc34)[nH]2)c2nsnc2c1` cannot be ordered by TGI: over 100 µM for the first, over 100 µM for the second.

Work on `N#CC[C@@H](O)COc1ccccc1` yielded a TGI of over 100 µM.

System: A549 NSCLC
Test: NCI-60 cell line screen, 48 h

`C[C@]12CC[C@H](O)CC1=CC[C@@H]1C2CC[C@]2(C)c3n[nH]nc3CC12` (some centres undefined) and `C=C1C(=O)O[C@@H]2O[C@@]3(C)CC[C@H]4[C@H](C)CC[C@@H]1[C@@]24O3` cannot be ordered by TGI: over 100 µM for the first, over 100 µM for the second.

`O=C1C=CC(=O)c2c1ccc1c3ccccc3n(CCCCCCCCn3c4ccccc4c4ccc5c(c43)C(=O)C=CC5=O)c21` and `N#CC[C@@H](O)COc1ccccc1` cannot be ordered by TGI: over 100 µM for the first, over 100 µM for the second.

From PubChem BioAssay (NCI)
